# Where two headings read alike, the source gives them in different places.
# Experiments:
# [1] = Stability in human blood serum (radio-HPLC); type: in vitro ADME; details: 37 °C
# Protocol: Ligand stability in human blood serum (n = 2) and PBS (pH = 6.5) (n = 1) was determined for different time points (2 min, 30 min, 60 min, 120 min). Therefore, approx. 5 MBq of radioligand was added to 1 mL of fresh human serum at 37 °C or PBS at rt. At each given time point 100 µL of the mixture were transferred to a 1.5 mL Eppendorf tube containing 100 µL of acetonitrile. The vial was vortexed and centrifuged for 2 min at 14,000 1/min before 100 µL of the supernatant were diluted with 200 µL of water and injected into analytical radio-HPLC. The PBS solution was directly injected into the radio-HPLC. Ligand stability was determined by integrating the areas of the signals in the radio chromatogram in relation to the signal of the intact ligand.
# [2] = Biodistribution studies in BALB/c mice; type: in vivo; details: for tissue uptake at 10 min / tissue uptake at 0.5 h / tissue uptake at 1 h: female, mouse, iv, total radioactivity, healthy BALB/c mice, 0.1 nmol i.v.; for tissue uptake at 10 min: 10 min p.i.; for tissue uptake at 0.5 h: 30 min p.i.; for tissue uptake at 1 h: 60 min p.i.
# Protocol: For biodistribution studies 6-week-old female BALB/c mice (n=3) were injected with 0.1 nmol (100 µL, approx. 1 MBq) of labelled compound via the lateral tail vein and sacrificed after 10, 30, or 60 min by cervical dislocation. The mice were dissected, blood and organs (spleen, pancreas, stomach, intestine, liver, kidney, heart, lung, muscle and bone) were weighed and their activity measured in a γ-counter. For blocking experiments, mice were co-injected with 27.7 µmοl N-acetylgalactose.
# [3] = Protein binding in human serum (MicroSpin G-50 columns); type: in vitro ADME; details: fresh human serum, 37 °C, n=3
# Protocol: Protein binding was determined for different time points (2 min, 30 min, 60 min, 120 min) in triplicates using Sephadex MicroSpin G-50 columns (GE-Healthcare, Chicago, Illinois, USA). The columns were spun initially at 20,000 rcf for 1 min to remove the storage buffer. Then approx. 5 MBq of radioligand was added to 1 mL of fresh human serum and incubated at 37 °C. At each given timepoint 25 µL of the mixture was loaded on to the column, which was then spun at 20,000 rcf for 1 min. The activity content on the column (free radioligand) and in the filtrate (protein bound fraction) was quantified in a γ-counter.
# [4] = Partition coefficient logD (n-octanol/PBS); type: physicochemical; details: n=6
# Protocol: For determination of logarithmic partition coefficients (logD) n-Octanol (500 µL) and PBS (500 µL) were pipetted into eight 1.5 mL Protein Low-Bind Eppendorf tubes followed by addition of 300 kBq of labelled compound. The vials were vortexed for 5 min at 1,500 1/min and then centrifuged for 5 min at 20,000 rcf (Eppendorf Centrifuge 5424). Aliquots of 100 µL were taken out of each phase and the amount of activity was quantified in a γ-counter (Perkin Elmer 2480 Wizard2 3"; Waltham, Massachusetts, USA).
# [5] = BALB/c mice, comparison with ^99mTc-GSA
# [6] = Blood, read-out: Biodistribution data, Blood
# [7] = Femur, read-out: Biodistribution data, Femur
# [8] = Heart, read-out: Biodistribution data, Heart
# [9] = Intestine, read-out: Biodistribution data, Intestine
# [10] = Kidneys, read-out: Biodistribution data, Kidneys
# [11] = Liver, read-out: Biodistribution data, Liver
# [12] = Lung, read-out: Biodistribution data, Lung
# [13] = Muscle, read-out: Biodistribution data, Muscle
# [14] = Pancreas, read-out: Biodistribution data, Pancreas
# [15] = Spleen, read-out: Biodistribution data, Spleen
# [16] = Stomach, read-out: Biodistribution data, Stomach
structure (smiles),measurement,setting,value
"NC(=O)CNC(=O)CNC(=O)[C@H](CCCCNC(=O)CCCCc1cn(C2O[C@H](CO)[C@H](O)[C@H](O)[C@H]2O)nn1)NC(=O)CNC(=O)CNC(=O)[C@H](CCCCNC(=O)CCCCc1cn(C2O[C@H](CO)[C@H](O)[C@H](O)[C@H]2O)nn1)NC(=O)CNC(=O)CNC(=O)[C@H](CCCCNC(=O)CCCCc1cn(C2O[C@H](CO)[C@H](O)[C@H](O)[C@H]2O)nn1)NC(=O)CNC(=O)CNC(=O)[C@H](CCCCNC(=O)CCCCc1cn(C2O[C@H](CO)[C@H](O)[C@H](O)[C@H]2O)nn1)NC(=O)CNC(=O)CNC(=O)[C@H](CCCCNC(=O)CCCCc1cn(C2O[C@H](CO)[C@H](O)[C@H](O)[C@H]2O)nn1)NC(=O)CNC(=O)CNC(=O)[C@H](CCCCNC(=O)CCCCc1cn(C2O[C@H](CO)[C@H](O)[C@H](O)[C@H]2O)nn1)NC(=O)CNC(=O)CNC(=O)[C@H](CCCCNC(=O)CCCCc1cn(C2O[C@H](CO)[C@H](O)[C@H](O)[C@H]2O)nn1)NC(=O)CNC(=O)CNC(=O)[C@H](CCCCNC(=O)CCCCc1cn(C2O[C@H](CO)[C@H](O)[C@H](O)[C@H]2O)nn1)NC(=O)CNC(=O)CNC(=O)[C@H](CCCCNC(=O)CCCCc1cn(C2O[C@H](CO)[C@H](O)[C@H](O)[C@H]2O)nn1)NC(=O)CCCNC(=O)CC[C@H](C(=O)O)N1CCN(CC(=O)O)CCN(CC(=O)O)CC1 (some centres unmarked) [[68Ga]Ga-NonaLysan, metal not drawn]",remaining at 2 min,"[1]; 2 min, n=2, read-out: Serum stability (% of intact ligand)",99.5 ± 0.1%
same,remaining at 0.5 h,"[1]; 30 min, n=2, read-out: Serum stability (% of intact ligand)",99.5 ± 0.1%
same,Serum stability (% of intact ligand),"[1]; 60 min, n=2",99.5 ± 0.1%
same,remaining at 2 h,"[1]; 120 min, n=2, read-out: Serum stability (% of intact ligand)",99.6%
same,activity accumulation in the liver (in words),[2]; [5],outperforms the accumulation in the liver found for the gold standard ^99mTc-GSA
same,activity concentration in the intestine (in words),[2]; [5],activity concentration is lower as found for ^99mTc-GSA
same,tissue uptake at 10 min,[2]; [6],0.43 ± 0.03 %ID/g
same,tissue uptake at 0.5 h,[2]; [6],0.15 ± 0.04 %ID/g
same,tissue uptake at 1 h,[2]; [6],0.22 ± 0.05 %ID/g
same,tissue uptake at 10 min,[2]; [7],0.26 ± 0.02 %ID/g
same,tissue uptake at 0.5 h,[2]; [7],0.26 ± 0.08 %ID/g
same,tissue uptake at 1 h,[2]; [7],0.23 ± 0.01 %ID/g
same,tissue uptake at 10 min,[2]; [8],0.44 ± 0.04 %ID/g
same,tissue uptake at 0.5 h,[2]; [8],0.44 ± 0.04 %ID/g
same,tissue uptake at 1 h,[2]; [8],0.52 ± 0.07 %ID/g
same,tissue uptake at 10 min,[2]; [9],0.77 ± 0.17 %ID/g
same,tissue uptake at 0.5 h,[2]; [9],5.61 ± 0.22 %ID/g
same,tissue uptake at 1 h,[2]; [9],7.91 ± 0.49 %ID/g
same,tissue uptake at 10 min,[2]; [10],1.16 ± 0.12 %ID/g
same,tissue uptake at 0.5 h,[2]; [10],0.83 ± 0.03 %ID/g
same,tissue uptake at 1 h,[2]; [10],0.99 ± 0.15 %ID/g
same,tissue uptake at 10 min,[2]; [11],71.23 ± 0.43 %ID/g
same,tissue uptake at 0.5 h,[2]; [11],79.6 ± 7.96 %ID/g
same,tissue uptake at 1 h,[2]; [11],69.6 ± 0.98 %ID/g
same,tissue uptake at 10 min,[2]; [12],0.85 ± 0.1 %ID/g
same,tissue uptake at 0.5 h,[2]; [12],0.7 ± 0.08 %ID/g
same,tissue uptake at 1 h,[2]; [12],0.92 ± 0.1 %ID/g
same,tissue uptake at 10 min,[2]; [13],0.61 ± 0.07 %ID/g
same,tissue uptake at 0.5 h,[2]; [13],0.66 ± 0.03 %ID/g
same,tissue uptake at 1 h,[2]; [13],0.59 ± 0.09 %ID/g
same,tissue uptake at 10 min,[2]; [14],0.75 ± 0.07 %ID/g
same,tissue uptake at 0.5 h,[2]; [14],0.91 ± 0.05 %ID/g
same,tissue uptake at 1 h,[2]; [14],1.16 ± 0.19 %ID/g
same,tissue uptake at 10 min,[2]; [15],0.57 ± 0.16 %ID/g
same,tissue uptake at 0.5 h,[2]; [15],0.17 ± 0.03 %ID/g
same,tissue uptake at 1 h,[2]; [15],0.49 ± 0.03 %ID/g
same,tissue uptake at 10 min,[2]; [16],0.73 ± 0.16 %ID/g
same,tissue uptake at 0.5 h,[2]; [16],1.15 ± 0.44 %ID/g
same,tissue uptake at 1 h,[2]; [16],1.78 ± 0.98 %ID/g
same,fraction unbound,[3]; 2 min,0.847
same,fraction unbound,[3]; 30 min,0.717
same,fraction unbound,[3]; 60 min,0.737
same,fraction unbound,[3]; 120 min,0.785
same,logD,[4],-4.06 ± 0.09
